{"source": "paper PMC8213057", "about": "“Targeting ALK2: An Open Science Approach to Developing Therapeutics for the Treatment of Diffuse Intrinsic Pontine Glioma” (Journal of Medicinal Chemistry, 2020)", "key": {"DYRK3": {"target": "T1, DYRK3 (Homo sapiens, UniProt O43781)", "T1 sequence (O43781 1-588)": "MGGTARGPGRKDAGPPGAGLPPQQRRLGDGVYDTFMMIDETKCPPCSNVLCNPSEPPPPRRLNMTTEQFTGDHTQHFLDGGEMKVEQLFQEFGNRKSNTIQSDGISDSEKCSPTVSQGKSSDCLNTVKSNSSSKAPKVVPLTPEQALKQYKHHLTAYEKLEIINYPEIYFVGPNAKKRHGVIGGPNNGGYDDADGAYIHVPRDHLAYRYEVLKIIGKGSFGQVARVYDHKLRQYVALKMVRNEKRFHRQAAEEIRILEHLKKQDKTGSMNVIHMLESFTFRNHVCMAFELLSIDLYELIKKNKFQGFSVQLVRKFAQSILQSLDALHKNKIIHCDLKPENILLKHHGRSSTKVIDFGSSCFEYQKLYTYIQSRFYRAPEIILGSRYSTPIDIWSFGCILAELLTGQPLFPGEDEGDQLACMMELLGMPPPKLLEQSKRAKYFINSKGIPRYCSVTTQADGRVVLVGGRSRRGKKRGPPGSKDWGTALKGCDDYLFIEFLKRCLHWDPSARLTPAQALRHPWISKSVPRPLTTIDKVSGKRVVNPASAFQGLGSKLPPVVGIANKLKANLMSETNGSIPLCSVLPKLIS", "conditions": "1 μM; Run 1, Run 2"}, "ASK1/MAP3K5": {"target": "T2, ASK1/MAP3K5 (Homo sapiens, UniProt Q99683)", "T2 sequence (Q99683 1-1374)": "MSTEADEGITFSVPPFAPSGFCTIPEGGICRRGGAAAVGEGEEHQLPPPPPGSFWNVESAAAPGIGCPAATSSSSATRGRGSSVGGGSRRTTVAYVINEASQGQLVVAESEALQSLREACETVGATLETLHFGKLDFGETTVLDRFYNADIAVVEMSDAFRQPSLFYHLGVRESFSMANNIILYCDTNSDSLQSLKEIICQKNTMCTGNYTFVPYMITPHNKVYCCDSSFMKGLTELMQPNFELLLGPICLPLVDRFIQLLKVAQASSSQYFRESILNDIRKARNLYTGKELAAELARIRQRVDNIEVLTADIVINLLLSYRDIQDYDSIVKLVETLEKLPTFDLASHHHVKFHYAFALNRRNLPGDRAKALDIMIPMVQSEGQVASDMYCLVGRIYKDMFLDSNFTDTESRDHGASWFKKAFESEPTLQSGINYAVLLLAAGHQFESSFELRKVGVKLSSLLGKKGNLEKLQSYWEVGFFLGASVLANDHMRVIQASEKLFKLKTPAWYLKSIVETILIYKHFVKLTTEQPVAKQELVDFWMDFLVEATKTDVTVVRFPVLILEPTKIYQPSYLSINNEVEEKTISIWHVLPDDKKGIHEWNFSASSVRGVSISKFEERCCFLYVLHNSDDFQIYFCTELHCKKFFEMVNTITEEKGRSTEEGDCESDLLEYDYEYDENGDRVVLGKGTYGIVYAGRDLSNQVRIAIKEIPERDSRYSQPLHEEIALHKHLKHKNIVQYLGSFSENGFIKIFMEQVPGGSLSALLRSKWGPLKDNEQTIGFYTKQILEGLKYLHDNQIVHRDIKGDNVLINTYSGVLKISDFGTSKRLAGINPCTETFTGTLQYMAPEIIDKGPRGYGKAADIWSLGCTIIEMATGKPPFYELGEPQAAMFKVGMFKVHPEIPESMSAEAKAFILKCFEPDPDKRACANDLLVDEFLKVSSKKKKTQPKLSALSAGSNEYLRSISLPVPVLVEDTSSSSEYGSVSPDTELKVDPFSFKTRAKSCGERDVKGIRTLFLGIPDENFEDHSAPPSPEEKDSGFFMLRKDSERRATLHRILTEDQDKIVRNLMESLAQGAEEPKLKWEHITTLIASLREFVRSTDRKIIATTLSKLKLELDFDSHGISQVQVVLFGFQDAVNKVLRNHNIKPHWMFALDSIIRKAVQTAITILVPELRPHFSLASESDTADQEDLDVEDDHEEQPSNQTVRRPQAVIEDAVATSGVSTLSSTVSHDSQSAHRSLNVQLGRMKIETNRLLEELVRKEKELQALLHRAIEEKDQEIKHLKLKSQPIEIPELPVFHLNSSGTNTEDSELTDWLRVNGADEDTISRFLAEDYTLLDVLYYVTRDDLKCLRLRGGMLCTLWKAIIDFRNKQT", "assay": "biochemical", "conditions": "read-out: % enzyme activity, 1 μM; Run 1, Run 2"}, "PDK1/PDPK1": {"target": "T3, PDK1/PDPK1 (Homo sapiens, UniProt O15530)", "T3 sequence (O15530 1-556)": "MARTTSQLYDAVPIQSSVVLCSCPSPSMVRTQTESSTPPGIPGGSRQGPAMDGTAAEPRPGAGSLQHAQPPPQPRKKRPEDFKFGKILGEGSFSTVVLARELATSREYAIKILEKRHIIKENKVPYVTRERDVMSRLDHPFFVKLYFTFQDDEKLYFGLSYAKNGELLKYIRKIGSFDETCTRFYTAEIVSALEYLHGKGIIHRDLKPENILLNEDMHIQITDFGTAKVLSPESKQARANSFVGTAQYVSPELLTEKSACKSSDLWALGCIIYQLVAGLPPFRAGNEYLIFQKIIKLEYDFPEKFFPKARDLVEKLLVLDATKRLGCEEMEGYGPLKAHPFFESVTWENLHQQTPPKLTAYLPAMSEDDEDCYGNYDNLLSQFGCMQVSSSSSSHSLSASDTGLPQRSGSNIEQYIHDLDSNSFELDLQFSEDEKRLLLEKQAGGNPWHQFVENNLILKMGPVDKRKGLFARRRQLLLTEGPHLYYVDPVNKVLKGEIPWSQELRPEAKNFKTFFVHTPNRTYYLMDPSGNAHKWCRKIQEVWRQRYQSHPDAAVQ", "assay": "biochemical", "conditions": "read-out: % enzyme activity, 1 μM; Run 1, Run 2"}, "CAMK1d": {"target": "CAMK1d (Homo sapiens, UniProt Q8IU85)", "sequence (Q8IU85 whole entry)": "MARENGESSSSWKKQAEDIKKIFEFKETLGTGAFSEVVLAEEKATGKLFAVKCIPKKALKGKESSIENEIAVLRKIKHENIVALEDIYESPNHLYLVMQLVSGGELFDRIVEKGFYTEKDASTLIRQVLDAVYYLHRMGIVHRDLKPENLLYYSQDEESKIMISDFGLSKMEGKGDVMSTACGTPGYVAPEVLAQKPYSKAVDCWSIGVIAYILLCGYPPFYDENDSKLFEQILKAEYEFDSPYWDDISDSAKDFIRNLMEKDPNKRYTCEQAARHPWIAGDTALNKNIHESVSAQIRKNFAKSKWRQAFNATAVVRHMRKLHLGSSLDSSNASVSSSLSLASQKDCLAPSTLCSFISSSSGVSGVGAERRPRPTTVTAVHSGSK", "conditions": "1 μM; Run 1, Run 2"}, "FER": {"target": "FER (Homo sapiens, UniProt P16591)", "sequence (P16591 whole entry)": "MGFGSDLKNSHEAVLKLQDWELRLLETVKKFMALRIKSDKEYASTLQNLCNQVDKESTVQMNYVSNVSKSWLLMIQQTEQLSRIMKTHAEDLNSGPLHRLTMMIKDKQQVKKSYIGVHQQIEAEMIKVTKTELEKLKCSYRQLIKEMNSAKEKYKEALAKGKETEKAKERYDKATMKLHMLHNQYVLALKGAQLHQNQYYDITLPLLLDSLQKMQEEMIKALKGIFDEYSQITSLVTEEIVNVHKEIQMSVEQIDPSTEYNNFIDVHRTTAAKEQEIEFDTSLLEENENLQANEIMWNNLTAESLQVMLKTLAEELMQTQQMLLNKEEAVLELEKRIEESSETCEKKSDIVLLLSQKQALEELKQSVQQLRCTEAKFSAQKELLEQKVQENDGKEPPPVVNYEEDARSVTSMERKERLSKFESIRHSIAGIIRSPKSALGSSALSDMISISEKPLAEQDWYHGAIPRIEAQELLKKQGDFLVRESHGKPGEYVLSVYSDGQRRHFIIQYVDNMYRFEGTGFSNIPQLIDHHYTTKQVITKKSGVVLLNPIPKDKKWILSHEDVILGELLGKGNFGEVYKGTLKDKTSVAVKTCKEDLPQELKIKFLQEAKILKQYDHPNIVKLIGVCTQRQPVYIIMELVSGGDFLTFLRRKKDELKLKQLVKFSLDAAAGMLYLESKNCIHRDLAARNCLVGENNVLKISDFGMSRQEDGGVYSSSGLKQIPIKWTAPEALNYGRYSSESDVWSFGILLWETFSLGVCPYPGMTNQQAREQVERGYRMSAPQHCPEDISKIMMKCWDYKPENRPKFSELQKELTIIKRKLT", "assay": "biochemical", "conditions": "read-out: % enzyme activity, 1 μM; Run 1, Run 2"}}, "note": "“And” between values parts separate entries of the source, which are not always exact repeats. Equal values may be shown once."}
{"smiles": "COc1cc(-c2cncc(-c3ccc(N4C[C@@H](C)N(C)[C@@H](C)C4)cc3)c2C)cc(F)c1C(N)=O", "note": "[Compound 26c, 2-Fluoro-6-methoxy-4-(4-methyl-5-(4-((3R,5S)-3,4,5-trimethylpiperazin-1-yl)phenyl)pyridin-3-yl)benzamide]", "values": [{"measurement": "% enzyme activity", "setting": "DYRK3", "value": 96.01, "unit": "%"}, {"measurement": "remaining activity at 1 µM", "setting": "ASK1/MAP3K5", "value": 97.8, "unit": "%"}, {"measurement": "remaining activity at 1 µM", "setting": "PDK1/PDPK1", "value": 95.9, "unit": "%"}, {"measurement": "% enzyme activity at 1 μM", "setting": "ALK4/ACVR1B", "value": "82.4% and 81.7%"}, {"measurement": "% enzyme activity", "setting": "CAMK1d", "value": 97.72, "unit": "%"}, {"measurement": "remaining activity at 1 µM", "setting": "FER", "value": 86, "unit": "%"}]}
{"smiles": "COc1cc(-c2cncc(-c3ccc(N4CCN(C)CC4)cc3)c2C)cc(F)c1C(N)=O", "note": "[Compound 26a, 2-Fluoro-6-methoxy-4-(4-methyl-5-(4-(4-methylpiperazin-1-yl)phenyl)pyridin-3-yl)benzamide]", "values": [{"measurement": "% enzyme activity", "setting": "DYRK3", "value": 88.30, "unit": "%"}, {"measurement": "remaining activity at 1 µM", "setting": "ASK1/MAP3K5", "value": 95.5, "unit": "%"}, {"measurement": "remaining activity at 1 µM", "setting": "PDK1/PDPK1", "value": 94.3, "unit": "%"}, {"measurement": "% enzyme activity at 1 μM", "setting": "ALK4/ACVR1B", "value": 68.8, "unit": "%"}, {"measurement": "% enzyme activity", "setting": "CAMK1d", "value": 98.20, "unit": "%"}, {"measurement": "remaining activity at 1 µM", "setting": "FER", "value": 89.2, "unit": "%"}]}
